Patent publication KR20170078259A, “아이소스테비올을 포함하는 피부상태 개선용 조성물” (주식회사 엘지생활건강, priority 2015, dated 2017)
Entries after “also recorded” stand apart in the source; their conditions may differ. Values belong to the molecule of their own block, whether it stands above or below them.

Assays:
[1] = target: T1, elastase derived from human leukocytes (사람의 백혈구 세포로부터 유래한 엘라스테이즈) (Homo sapiens, UniProt P08246); assay: Elastase activity inhibition (MeOSuc-Ala-Ala-Pro-Val-pNA substrate); assay type: biochemical; details: for elastase activity inhibition (in words): compared with quercetin; for enzyme activity: slope of absorbance at 405 nm
T1 construct: 사람의 백혈구 세포로부터 유래한 엘라스테이즈를 사용하였고; from tissue; host or cells: human leukocytes
T1 sequence (P08246 30-267): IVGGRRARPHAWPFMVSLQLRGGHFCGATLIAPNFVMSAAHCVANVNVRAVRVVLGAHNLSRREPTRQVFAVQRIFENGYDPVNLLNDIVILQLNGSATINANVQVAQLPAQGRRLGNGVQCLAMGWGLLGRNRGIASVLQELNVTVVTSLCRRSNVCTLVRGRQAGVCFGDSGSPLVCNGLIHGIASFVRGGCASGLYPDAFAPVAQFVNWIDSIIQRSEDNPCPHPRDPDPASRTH

[2] = system: B-16 mouse melanoma cell (쥐의 멜라노마 세포); assay: Total melanin increase in B-16 mouse melanoma cells (darkening effect); assay type: cell-based; details: for melanin production: absorbance at 400 nm per 1×10^6 cells
[3] = system: human-derived fibroblasts, type I collagen (인간 유래 섬유아세포, 제1형 콜라겐); assay: Type I collagen synthesis promotion in human-derived fibroblasts (PICP EIA kit); assay type: cell-based
[4] = Anti-glycation (L-arginine and glucose); assay type: biochemical; details: for inhibition rate: 70 °C, 4 h, 420 nm
[5] = 10 ppm, room temperature, 20 min, n = 3, read-out: inhibition rate

SMILES: O=c1c(O)c(-c2ccc(O)c(O)c2)oc2cc(O)cc(O)c12 [Quercetin, reference compound]
inhibition at 10 ppm [1, 5]: 69.2%

SMILES: C=C[C@@]1(C)CC(=O)[C@]2(O)[C@@]3(C)[C@@H](O)CCC(C)(C)[C@@H]3[C@H](O)[C@H](OC(C)=O)[C@@]2(C)O1 [Forskolin, reference compound]
melanin production ([2]; 10 ppm, 3 days): 0.792 abs
activation at 10 ppm ([2]; Mus musculus, 72 h, 10 ppm, 3 days, relative to control, read-out: increase rate (total melanin)): 140%

SMILES: O=C1O[C@H]([C@@H](O)CO)C(O)=C1O [비타민C, reference compound]
activation at 52.85 ppm ([3]; Homo sapiens, Fibroblast, vitamin C positive control, 52.85 ppm, 48 h, relative to negative control, n = 4, read-out: increase rate (type I collagen production)): 64.3%
type I collagen production ([3]; vitamin C positive control, 52.85 ppm, 48 h, n = 4): 246.8 ng/mL

SMILES: N=C(N)NN [Aminoguanidine, reference compound]
inhibition rate ([4]; aminoguanidine positive control, 55 ppm): 54.89%

inhibition at 10 ppm [1, 5]: 55.8%
enzyme activity ([1]; 10 ppm, room temperature, 20 min, n = 3): 4.6
elastase activity inhibition (in words) ([1]; 20 ppm): 퀘르세틴보다 우수한 엘라스테이즈 활성 저해 효과가 나타나
inhibition at 20 ppm ([1]; 20 ppm, room temperature, 20 min, n = 3, read-out: inhibition rate): 69.2%
enzyme activity ([1]; 20 ppm, room temperature, 20 min, n = 3): 3.2
SMILES: C[C@@]12CC[C@@H]3[C@@](CC[C@H]4[C@@]3(C)CCC[C@@]4(C)C(=O)O)(CC1=O)C2 [화학식 1의 화합물, (4α,8β,13β)-13-Methyl-16-oxo-17-norkauran-18-oic acid]
inhibition rate ([4]; 25 ppm): 51.12%
inhibition rate ([4]; 50 ppm): 69.22%
anti-glycation effect (in words) ([4]; compared with aminoguanidine): 항당화 효과가 더욱 뛰어남
collagen synthesis effect (in words) ([3]; 1 and 10 ppm, compared with vitamin C): 농도 의존적으로 콜라겐 합성량이 증가되었고; also recorded: 비타민C를 적용한 경우보다 더 낮은 농도에서 유사한 콜라겐 합성 효과를 나타내었다
type I collagen production ([3]; 1 ppm, 48 h, n = 4): 187.6 ng/mL
type I collagen production ([3]; 10 ppm, 48 h, n = 4): 265.5 ng/mL
activation at 1 ppm ([3]; Homo sapiens, Fibroblast, 1 ppm, 48 h, relative to negative control, n = 4, read-out: increase rate (type I collagen production)): 24.9%
activation at 10 ppm ([3]; Homo sapiens, Fibroblast, 10 ppm, 48 h, relative to negative control, n = 4, read-out: increase rate (type I collagen production)): 76.8%
elastase activity inhibition (in words) ([1]; 10 ppm): 엘라스테이즈 활성 저해 효과가 양성대조군인 퀘르세틴에 상응하는 정도로 높게 나타났으며
melanin production ([2]; 1 ppm, 3 days): 0.662 abs
total melanin increase effect (in words) ([2]; 10 ppm, compared with forskolin): 10 ppm에서도 상당히 우수한 멜라닌 총량 증가 효과
melanin production ([2]; 20 ppm as printed in table, 3 days): 0.831 abs
activation at 1 ppm ([2]; Mus musculus, 72 h, 1 ppm, 3 days, relative to control, read-out: increase rate (total melanin)): 101%
activation at 20 ppm ([2]; Mus musculus, 72 h, 20 ppm as printed in table, 3 days, relative to control, read-out: increase rate (total melanin)): 152%
